Values after ≈ are worked out from the molar mass of the structure shown. Where two headings read alike, the source gives them in different places. Marks after values point to notes of the source that are not given here.
Columns and labels:
[1] = HepG2 cytotoxicity (CellTiter-Glo, 72 h); format: cell-based, human; conditions: human
Method: (§1) Cytotoxicity against HepG2 cells was measured after 72 h. Cells were seeded in 384-well plates at 1,800 cells per well. Compounds were added as a 10-point three-fold serial dilution after 24 h (final assay concentration of 1% DMSO). CellTiter-Glo® reagent (Promega) was added and relative luminescence units (RLU) measured. Data were normalized to the DMSO controls. Curves were fitted using the Levenberg–Marquardt algorithm; TC50 was calculated as the compound concentration required to reduce cell viability by 50%.
(§2) We further evaluated cytotoxicity using the HepG2 cell line cultured with either glucose or galactose in the medium (Table 2). HepG2 cells cultured with galactose rely on mitochondrial oxidative phosphorylation rather than glycolysis which increases their susceptibility to mitochondrial toxicants allowing us to identify compounds with mitochondrial toxicity ([Kamalian et al., 2015]).

M. tuberculosis [2] = assay: Minimum inhibitory concentration in liquid medium (axenic culture); format: cell-based, Mycobacterium tuberculosis; conditions: for IC50: read-out: Anti-tubercular activity in axenic culture IC50
RAW264.7 cells [3] = test system: RAW264.7 cells
RAW264.7 cells [4] = assay: Macrophage viability in the same high content assay; conditions: for Intracellular RAW TC50 / Intracellular activity Cytotoxicity TC50: infected RAW264.7 macrophages; for Intracellular RAW TC50: SAR tables 4-8; for Intracellular activity Cytotoxicity TC50: 72 h; for selectivity index (TC50/IC50): macrophage TC50 / intracellular IC50; for selectivity index (SI): HepG2 cells and/or macrophages, cell line not specified
M. tuberculosis [5] = assay: High content assay of intracellular M. tuberculosis growth in infected RAW264.7 macrophages; format: cell-based, Mycobacterium tuberculosis H37Rv-LP
Method: Compounds were obtained in 384-well plates as 10 mM DMSO stock solutions and tested as described ([Manning et al., 2017]). Briefly, assay plates were prepared in clear bottom, black 384-well plates with 30 μl cRPMI and 0.6 μl compound in columns 3–22 (final concentration of 10 μM compound, 1% DMSO). […] INH and STA were also included in dose response on each plate. RAW264.7 cells were infected with M. tuberculosis DREAM8 as described ([Manning et al., 2017]) at an MOI of 1 for 24 h and extracellular bacteria removed by washing. Cells were recovered using Accumax, harvested, washed and resuspended in serum-free RPMI; 30 μl of infected cells were dispensed into each well at 3,300 cells/well. Plates were incubated for 72 h, 10 μl of 5X SYBR Green I was added and plates were imaged with an ImageXpress Micro High Content Screening System (Molecular Devices) using a ×4 objective and FITC and Texas Red channels. MetaXpress was used to analyze images. The integrated intensity of M. tuberculosis or macrophages was calculated for each well. Growth inhibition was calculated for each test well by normalizing to the average integrated intensity of the DMSO control wells. IC50 was calculated as the compound concentration required to reduce bacterial growth by 50%. TC50 was calculated as the compound concentration required to reduce macrophage viability by 50%.

[6] = test system: non-replicating M. tuberculosis; design: method as in Christophe et al., 2009; conditions: ref Christophe et al., 2009; cited from earlier work
HepG2 cells = assay: HepG2 cytotoxicity (CellTiter-Glo, 72 h); format: cell-based, human; conditions: for HepG2 cytotoxicity TC50 Galactose / HepG2 cytotoxicity TC50 Glucose: human, 72 h; for selectivity (SI) for HepG2: HepG2 cytotoxicity / intracellular IC50
Method: as §1, §2

M. tuberculosis [7] = test system: M. tuberculosis; design: method as in PMID 30466326; conditions: inhibitor of M. tuberculosis ref 20; cited from earlier work
[8] = HepG2 cytotoxicity IC50 Galactose
[9] = HepG2 cytotoxicity IC50 Glucose
[10] = Mycobacterium tuberculosis, axenic culture, SAR tables 4-8, read-out: Extracellular IC90
[11] = Mycobacterium tuberculosis, RAW264.7, in RAW264.7 macrophages, SAR tables 4-8, read-out: Intracellular Mtb IC50
[12] = Mycobacterium tuberculosis, RAW264.7, 72 h, M. tuberculosis in RAW264.7 cells, MOI 1, 72 h, read-out: Intracellular activity Anti-tubercular activity IC50
[13] = Mycobacterium tuberculosis, 120 h, extracellular, 5 days, OD590
[14] = Mycobacterium tuberculosis, 120 h, extracellular, 5 days, OD590, read-out: Anti-tubercular activity in axenic culture IC90
[15] = Mycobacterium tuberculosis, RAW264.7, read-out: Intracellular Mtb IC50, in RAW264.7 macrophages, SAR tables 4-8

SMILES	IC50 at 72 h [1, 8] [µM]	IC50 at 72 h [1, 9] [µM]	IC90 (M. tuberculosis [2]; [10]) [µM]	Intracellular RAW TC50 (RAW264.7 cells [4])	IC50 (M. tuberculosis [5]; [11]) [µM]	IC50 (M. tuberculosis [5]; [12]) [µM]	HepG2 cytotoxicity TC50 Galactose (HepG2 cells)	HepG2 cytotoxicity TC50 Glucose (HepG2 cells)	IC50 (M. tuberculosis [2]; [13]) [µM]	IC90 (M. tuberculosis [2]; [14]) [µM]	Intracellular activity Cytotoxicity TC50 (RAW264.7 cells [4])	other results
O=C(Nc1ccc(Cl)cc1)Nc1ccc(Nc2ccccc2)cc1 [TPN-0073077]	> 100	> 100	> 20	68 ± 23 ^b µM	–	–	–	–	–	–	–	cytotoxicity to macrophages (RAW264.7 cells [3]): cytotoxic
Cc1ccc(OCC(=O)N2CCCc3ccccc32)cc1 [TPN-0006208]	> 100	> 100	> 20	86 ± 1.0 ^b µM	13	–	–	–	–	–	–	activity against non-replicating M. tuberculosis [6]: had activity
O=C(CSc1ccc(Cl)cc1)Nc1ccc(F)c(Cl)c1 [TPN-0006216]	33 ± 4	44 ± 2	> 20	>100 ^b µM	2.4 ± 0.5	2.8 ± 0.78	33 ± 4 ^b µM	44 ± 2 ^b µM	> 20	> 20	>100 ^d µM	activity against intracellular M. tuberculosis (M. tuberculosis [5]): good intracellular activity; IC90 (M. tuberculosis [7]): 6.9 µg/mL (≈ 20.9 µM); Intracellular RAW TC50 (RAW264.7 cells [4]; listed as 12): > 100 µM; selectivity index (TC50/IC50) (RAW264.7 cells [4]): > 42
Cc1cc(C)nc(NC(=N)Nc2ccc(Br)cc2)n1 [TPN-0073061]	22 ± 3.1	212 ± 4	8.2 ± 0.1	18 ± 4.3 ^d µM	–	1.3 ± 0.15	22 ± 3.1 ^c µM	22 ± 4.0 ^c µM	6.3 ± 0.15	8.2 ± 0.1	18 ± 4.3 ^d µM	IC50 (M. tuberculosis [5]; [15]): 1.3 ± 0.1 µM; selectivity index (TC50/IC50) (RAW264.7 cells [4]): 14
Cc1ccc(SCC(=O)Nc2ccc(Br)c(C)c2)cc1 [TPN-0006207]	> 100	> 100	> 20	>100 ^b µM	6.3 ± 0.3	6.3 ± 0.3	>100 ^b µM	>100 ^b µM	> 20	> 20	>100 ^b µM	activity against intracellular M. tuberculosis (M. tuberculosis [5]): good intracellular activity
OCc1cn(-c2ccc(F)cc2)nc1-c1cc(F)c(Cl)cc1Cl [TPN-0073565]	43 ± 2.3	46 ± 2.8	> 20	>100 ^d µM	7 ± 1.8	7 ± 1.8	43 ± 2.1 ^d µM	46 ± 2.8 ^e µM	18.5	> 20	>100 ^d µM	IC50 (M. tuberculosis [2]; extracellular, 5 days, OD590): > 20 µM
COc1ccc(OCC(=O)Nc2sc3c(c2C(=O)NC2CCS(=O)(=O)C2)CCCC3)cc1 (stereo not drawn) [TPN-0073584]	> 100	> 100	> 20	>100 ^c µM	5.1 ± 1.7	5.1 ± 1.7	>100 ^c µM	>100 ^c µM	> 20	> 20	>100 ^b µM	selectivity (SI) for HepG2 (HepG2 cells): 20; selectivity index (SI) (RAW264.7 cells [4]): > 10
OCc1cn(-c2ccc(Cl)cc2)nc1-c1ccc(Cl)cc1 [TPN-0073562]	31 ± 2.2	31 ± 2.1	19 ± 1.5	16 ± 11 ^c µM	2.9 ± 0.5	2.9 ± 0.52	31 ± 1.9 ^e µM	31 ± 2.1 ^c µM	12 ± 0.5	19 ± 1.5	16 ± 11 ^c µM	–
CC(C)c1ccc(OCC(=O)Nc2nccs2)cc1 [TPN-0006217]	64 ± 1.5	91 ± 3	> 20	–	–	4.9 ± 2.1	64 ± 1.5 ^b µM	91 ± 3 ^b µM	> 20	> 20	75 ± 16 ^d µM	–
CCOc1ccc(NC(=S)Nc2ccc(C)c(C#N)c2)cc1 [TPN-0073063]	35 ± 6.6	64 ± 40	9.5 ± 3.2	47 ± 28 ^g µM	–	0.25 ± 0.23	34 ± 6.5 ^e µM	40 ± 11 ^e µM	5 ± 1.5	9.5 ± 3.2	47 ± 28 ^f µM	IC50 (M. tuberculosis [5]; [15]): 0.3 ± 0.2 µM; selectivity index (TC50/IC50) (RAW264.7 cells [4]): > 150
CCCOc1ccc(C(=O)Nc2sc(C)c(C)c2C(N)=O)cc1 [TPN-0073576]	89 ± 5.5	83 ± 2.9	> 20	>100 ^d µM	–	1.1 ± 0.36	92 ± 7 ^c µM	83 ± 2.9 ^c µM	> 20	> 20	>100 ^d µM	IC50 (M. tuberculosis [5]; in RAW264.7 macrophages, SAR tables 4-8, listed as 26, read-out: Intracellular Mtb IC50): < 5 µM; IC50 (M. tuberculosis [5]; in RAW264.7 macrophages, SAR tables 4-8, read-out: Intracellular Mtb IC50): 1 ± 0.4 µM; selectivity (SI) for HepG2 (HepG2 cells): > 80; selectivity index (SI) (RAW264.7 cells [4]): > 10
O=C(COc1ccccc1)NC12CC3CC(CC(C3)C1)C2 [TPN-0006211]	43 ± 1	53 ± 1.5	> 20	38 ± 6.0 ^b µM	7.6 ± 3.5	7.6 ± 3.5	43 ± 1 ^b µM	53 ± 1.5 ^b µM	> 20	> 20	38 ± 6.0 ^b µM	–

— article PMC8762250, “Identification of Novel Chemical Scaffolds that Inhibit the Growth of Mycobacterium tuberculosis in Macrophages” (Frontiers in Pharmacology, 2022)
